Assay results published in US20060014717A1, “Therapeutic compositions for use in prophylaxis or treatment of diarrheas” (priority 2002, published 2006).

Key:
Assay in all cases: Binding of 35S-labeled Helicobacter species to glycosphingolipids on thin-layer chromatograms
H. pylori CCUG 17875 [1] = system: H. pylori CCUG 17875; design: species or system Helicobacter pylori
Excerpt: (§1) Gastric species examined in the present study included, Helicobacter mustelae ferret isolates from the National Collection of Type Cultures (NCTC) and the Culture Collection of the University of Gothenberg (CCUG), NCTC 12198/CCUG 25175 (equivalent strains from different sources tested), CCUG 23950 and CCUG 23951, Helicobacterfelis CCUG 28539 from a cat, in addition, H. pylori strains CCUG 17874, CCUG 17875 and a clinical isolate 119/95 were used. Enterohepatic helicobacters of animal origin were purchased from the CCUG including, Helicobacter canes CCUG 33835, Helicobacter bilis CCUG 38995, Helicobacter hepaticus CCUG 33637, and Helicobacterfennelliae (CCUG 18820).
(§2) Binding of Helicobacter spp. to glycosphingolipids, both acid and non-acidfractions. Glycosphingolipids were isolated by standard procedures (Karlsson, 1987). The identity of the purified glycosphingolipids was confirmed by mass spectrometry (Samuelsson et al., 1990), proton NMR spectroscopy (Koerner et al., 1983) and degradation studies (Stellner et al., 1973; Yang and Hakomori, 1971).
Mixtures of glycosphingolipids (40 μg/lane) or pure compounds (2 μg/lane) were subsequently separated using thin-layer chromatography (TLC) on glass- or aluminum-backed silica gel 60 HPTLC plates (Merck, Darmstadt, Germany), with chloroform/methanot/water (60:35:8, by volume) as solvent system. […]

H. pylori CCUG 17875 [2] = system: H. pylori CCUG 17875; design: species or system Helicobacter pylori; key: + denotes a significant darkening on the autoradiogram when 2 μg (or 40 μg in the case of the last sample) was applied to TLC plates; − denotes no binding; settings: 2 μg (40 μg for the glycosphingolipid fraction) on TLC plates
Excerpt: as §1, §2
(§3) Mixtures of glycosphingolipids (40 μg/lane) or pure compounds (2 μg/lane) were subsequently separated using thin-layer chromatography (TLC) on glass- or aluminum-backed silica gel 60 HPTLC plates (Merck, Darmstadt, Germany), with chloroform/methanot/water (60:35:8, by volume) as solvent system. Chemical detection was accomplished by anisaldehyde (Waldi, 1962). Helicobacter spp. were subjected to ^35S-labeling (Angstrom et al., 1998) and suspended in PBS (10^8 CFU/ml) with a specific activity of approximately 1 cpm per 100 organisms. Binding of the labeled-bacteria to glycosphingolipids separated by TLC was achieved using a bacterial-overlay technique coupled with autoradiography detection using XAR-5 X-ray films (Eastman Kodak, Rochester, N.Y.) as previously described (Hansson et al., 1985).

H. pylori CCUG 17874 = system: H. pylori CCUG 17874; design: species or system Helicobacter pylori; key: An significant darkening on the autoradiogram when 2 μg of the glycosphingolipid was applied on the thin-layer plate is denoted by +; − denotes no binding; settings: 2 μg (40 μg for the glycosphingolipid fraction) on TLC plates
Excerpt: as §1, §2, §3

H. felis CCUG 28539 = system: H. felis CCUG 28539; design: species or system Helicobacter felis; key: An significant darkening on the autoradiogram when 2 μg of the glycosphingolipid was applied on the thin-layer plate is denoted by +; − denotes no binding; settings: 2 μg (40 μg for the glycosphingolipid fraction) on TLC plates
Excerpt: as §1, §2, §3

H. canis CCUG 33835 = system: H. canis CCUG 33835; design: species or system Helicobacter canis; key: An significant darkening on the autoradiogram when 2 μg of the glycosphingolipid was applied on the thin-layer plate is denoted by +; − denotes no binding; settings: 2 μg (40 μg for the glycosphingolipid fraction) on TLC plates
Excerpt: as §1, §2, §3

H. hepaticus CCUG 33637 = system: H. hepaticus CCUG 33637; design: species or system Helicobacter hepaticus; key: An significant darkening on the autoradiogram when 2 μg of the glycosphingolipid was applied on the thin-layer plate is denoted by +; − denotes no binding; settings: 2 μg (40 μg for the glycosphingolipid fraction) on TLC plates
Excerpt: as §1, §2, §3

H. mustelae 25715 = system: H. mustelae 25715; design: species or system Helicobacter mustelae; key: An significant darkening on the autoradiogram when 2 μg of the glycosphingolipid was applied on the thin-layer plate is denoted by +; − denotes no binding; settings: 2 μg (40 μg for the glycosphingolipid fraction) on TLC plates
Excerpt: as §1, §2, §3

[3] = system: H. mustelae CCUG 23950 & 23951; design: species or system Helicobacter mustelae; key: An significant darkening on the autoradiogram when 2 μg of the glycosphingolipid was applied on the thin-layer plate is denoted by +; − denotes no binding; settings: 2 μg (40 μg for the glycosphingolipid fraction) on TLC plates
Excerpt: as §1, §2, §3

H. bilis CCUG 38995 = system: H. bilis CCUG 38995; design: species or system Helicobacter bilis; key: An significant darkening on the autoradiogram when 2 μg of the glycosphingolipid was applied on the thin-layer plate is denoted by +; − denotes no binding; settings: 2 μg (40 μg for the glycosphingolipid fraction) on TLC plates
Excerpt: as §1, §2, §3

Fucα2Galβ3(Fucα4)GlcNAcβ3Galβ4Glcβ1Cer [No. 25]
Binding of H. pylori CCUG 17875 to glycosphingolipid, in words (H. pylori CCUG 17875 [1]): only observed for H. pylori CCUG 17875 | Binding of glycosphingolipids to H.pylori 17875 (H. pylori CCUG 17875 [2]): + | Binding of glycosphingolipids to H.pylori 17874 (H. pylori CCUG 17874): − | Binding of glycosphingolipids to H.felis 28539 (H. felis CCUG 28539): − | Binding of glycosphingolipids to H.canis 33835 (H. canis CCUG 33835): − | Binding of glycosphingolipids to H.hepaticus 33637 (H. hepaticus CCUG 33637): − | Binding of glycosphingolipids to H.mustelae 25715 (H. mustelae 25715): − | Binding of glycosphingolipids to H.mustelae 23950 & 23951 [3]: − | Binding of glycosphingolipids to H.bilis 38995 (H. bilis CCUG 38995): −
